System: HuCCT1 cell xenograft
Test: Xenograft of NIK shRNA-introduced HuCCT1 cells in NOG mouse
Type: in vivo
Settings: HuCCT1 cells with shRNA introduced by lentivirus
Protocol: A histopathological slide was deparaffinized with xylene and ethanol. HE staining was performed with hematoxylin and eosin. In immunostaining, antigen activation was performed by heating in Target Retrieval Solution (Dako, USA), followed by blocking with bovine serum albumin and a reaction through use of a primary antibody at 4° C. overnight. A frozen section was dried at room temperature, and was blocked with BSA (Nacalai Tesque, Inc., Japan), followed by a reaction through use of a primary antibody in VECTASTAIN ABC Rabbit IgG Kit (Vector Laboratories, Inc., USA). DAB Substrate Kit (Vector Laboratories, Inc., USA) was used in a staining reaction. […] The number of Ki67-positive cells in a tumor was counted with ImageJ (Fiji). The immunostaining score of TRAF3 or NIK was calculated by multiplying a staining intensity (of from 0 to 3) by a stained area (%). Human ICC patients were grouped into two groups on the basis of the median immunostaining score of TRAF3 or NIK, and were evaluated for their disease-free survival (DFS) or overall survival (OS). […]
Further, the HuCCT1 cells were infected with negative control shRNA or NIK shRNA by using a lentivirus, and the infected cells were selected with puromycin. […] The measurement of the diameters of the tumors of the mice was started 3 weeks after the transplantation, and their tumor volumes were measured by the same method as that described above. […]

NIK shRNA: shRNA against NIK, SEQ ID NO: 1, introduced into HuCCT1 cells by a lentivirus (CCGGCUCAGGACUCACGUAGCAUUACUCGAGUAAUGCUACGUGAGUCCUGAGUUUUU)
number of Ki67-positive cells in tumors versus negative control shRNA-introduced tumors (FIG. 24B): significantly lower | growth of xenografts derived from the HuCCT1 cells (tumor size) (measured from day 21 after transplantation, FIG. 24A): significantly suppressed

From patent US20240285599A1, “Mature-Hepatocyte Transdifferentiation Suppressing Composition” (OSAKA UNIVERSITY, priority 2021, published 2024)
